Laboratory results taken from patent US4977153A, “3-aminopropyloxyphenyl derivatives, pharmaceutical compositions containing them and method for the therapy of diseases” (Louis; William J., priority 1985, dated 1990).
Where two headings read alike, the source gives them in different places.

Tests used:
[1] = system: resting heart rate in the pithed rat; assay: intrinsic sympathomimetic activity: increase in resting heart rate in the pithed rat; type: in vivo; details: maximum effect of cumulative doses of drug up to 3 mg/kg
[2] = system: resting heart rate in the pithed rat; details: in words; cited from earlier work
[3] = in words; cited from earlier work
[4] = target: T1, beta adrenoceptor (heart) (Rattus norvegicus, UniProt P18090); assay: inhibition of isoproterenol-induced tachycardia in the pithed rat; type: in vivo; details: read-out: Pithed Rat Effective Dose (ID50)
T1 construct: from tissue; host or cells: heart in the whole animal (pithed rat, in vivo)
T1 sequence (P18090 whole entry): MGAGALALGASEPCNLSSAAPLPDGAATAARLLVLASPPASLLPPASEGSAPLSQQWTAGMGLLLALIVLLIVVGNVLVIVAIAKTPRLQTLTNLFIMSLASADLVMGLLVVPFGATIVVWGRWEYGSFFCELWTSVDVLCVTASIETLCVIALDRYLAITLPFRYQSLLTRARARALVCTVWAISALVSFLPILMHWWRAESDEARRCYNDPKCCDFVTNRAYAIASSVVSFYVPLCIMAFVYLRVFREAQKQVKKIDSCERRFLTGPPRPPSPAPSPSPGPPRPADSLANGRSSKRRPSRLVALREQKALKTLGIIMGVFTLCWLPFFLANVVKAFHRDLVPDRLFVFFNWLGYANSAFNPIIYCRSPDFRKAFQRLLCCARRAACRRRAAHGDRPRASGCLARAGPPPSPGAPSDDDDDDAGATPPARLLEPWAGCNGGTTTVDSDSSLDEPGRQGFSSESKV

[5] = target: T2, beta adrenoceptor (guinea pig atrium) (Cavia porcellus, UniProt H0W3H1); assay: beta adrenoceptor blocking activity in the spontaneously beating guinea pig atrium (inhibition of positive chronotropic isoproterenol effect); type: cell-based
T2 construct: in the spontaneously beating guinea pig atrium; from tissue; host or cells: guinea pig atrium, spontaneously beating
T2 sequence (H0W3H1 1-470): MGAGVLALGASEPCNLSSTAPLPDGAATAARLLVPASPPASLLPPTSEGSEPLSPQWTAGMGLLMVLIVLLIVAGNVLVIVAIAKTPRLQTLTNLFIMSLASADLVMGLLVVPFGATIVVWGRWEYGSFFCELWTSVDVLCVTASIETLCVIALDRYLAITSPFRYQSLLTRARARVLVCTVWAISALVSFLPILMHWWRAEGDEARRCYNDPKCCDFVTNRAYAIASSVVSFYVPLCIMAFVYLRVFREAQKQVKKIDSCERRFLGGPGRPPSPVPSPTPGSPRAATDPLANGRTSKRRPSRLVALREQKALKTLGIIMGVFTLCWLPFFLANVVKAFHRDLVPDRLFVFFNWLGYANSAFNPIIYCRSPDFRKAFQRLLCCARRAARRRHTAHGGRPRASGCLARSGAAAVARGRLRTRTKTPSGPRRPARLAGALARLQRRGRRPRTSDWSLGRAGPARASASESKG

[6] = target: T3, beta adrenoceptor (guinea pig trachea) (Cavia porcellus, UniProt Q8K4Z4); assay: inhibition of isoproterenol-induced relaxation in guinea pig tracheal preparations (cardioselectivity); type: cell-based; details: guinea pig trachea, in words
T3 construct: tracheal preparations of the guinea pig; from tissue; host or cells: guinea pig tracheal muscle
T3 sequence (Q8K4Z4 whole entry): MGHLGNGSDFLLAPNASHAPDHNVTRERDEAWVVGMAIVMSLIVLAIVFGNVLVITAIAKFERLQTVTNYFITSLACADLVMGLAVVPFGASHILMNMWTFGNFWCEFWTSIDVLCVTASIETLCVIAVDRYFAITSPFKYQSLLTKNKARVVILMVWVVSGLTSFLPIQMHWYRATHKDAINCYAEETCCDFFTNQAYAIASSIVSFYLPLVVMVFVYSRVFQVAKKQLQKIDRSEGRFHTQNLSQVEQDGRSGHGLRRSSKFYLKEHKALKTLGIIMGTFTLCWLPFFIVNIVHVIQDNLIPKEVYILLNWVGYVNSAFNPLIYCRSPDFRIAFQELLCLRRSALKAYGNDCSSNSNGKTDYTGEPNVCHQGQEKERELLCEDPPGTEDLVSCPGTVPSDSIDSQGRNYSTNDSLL

[7] = system: beta adrenoceptor (guinea pig trachea); assay: as above; type: cell-based; details: selectivity index, guinea pig trachea vs atrium
[8] = inhibition of isoproterenol-induced tachycardia, pithed rat
[9] = dose which doubles the concentration of isoproterenol needed to elicit a 50% increase in heart rate, spontaneously beating guinea pig atrium, read-out: Guinea Pig Atrium, Effective Molar Dose (ID50)

**Q.** Which “Maximum Change in Resting Heart Rate in the Pithed Rat” value (“Maximum Change in Resting Heart Rate” below) [1] does the source give for `CC(C)NCC(O)COc1cccc2ccccc12` (stereo not drawn) [Propranolol] here?
**A.** Its value is 0.

**Q.** And the “intrinsic sympathomimetic activity (ISA), known drug” value [2]?
**A.** The value was “no ISA”.

**Q.** What about the “plasma cholesterol effect, known drug” value [3] of the same compound?
**A.** The value was “elevated plasma cholesterol”.

**Q.** And the “rebound hypersensitivity after cessation, known drug” value [3]?
**A.** Its value is “rebound hypersensitivity occurring after cessation”.

**Q.** Which ED50 [4, 8] does the source give for `CCCOCCOc1ccc(OCC(O)CN[C@H](C)CNC(=O)c2ccco2)cc1` (stereo partly drawn) [Example 29] here?
**A.** The ED50 was 0.05 mg/kg.

**Q.** What about the Kb [5, 9] of the same compound?
**A.** Its Kb is 30 nM.

**Q.** Which “Maximum Change in Resting Heart Rate” value [1] does the source give for `CC(C)NCC(O)COc1cccc2[nH]ccc12` (stereo not drawn) [Pindolol, reference compound] here?
**A.** Its value is “+89”.

**Q.** Which “Maximum Change in Resting Heart Rate” value [1] does the source give for `CC(C)NCC(O)COc1ccc(CCOCC2CC2)cc1` (stereo not drawn) [Betaxolol, reference compound] here?
**A.** The value was 0.

**Q.** For `O=C(NCCNCC(O)COc1ccc(OCCOCC2CC2)cc1)c1ccco1` (stereo not drawn) [Example 23], which ED50 [4, 8] is on record?
**A.** Its ED50 is 0.03 mg/kg.

**Q.** What about the “Maximum Change in Resting Heart Rate” value [1] of the same compound?
**A.** Its value is “+42”.

**Q.** With `COCCOc1ccc(OCC(O)CNCCNC(=O)Nc2ccc3[nH]ccc3c2)c(C#N)c1` (stereo not drawn) [Example 6] as the compound, how does the Kb [5, 9] read?
**A.** The Kb was 13 nM.

**Q.** For `N#Cc1cc(OCCOCCc2ccccc2)ccc1OCC(O)CNCCNC(=O)Nc1ccc2[nH]ccc2c1` (stereo not drawn) [Example 14], which Kb [5, 9] is on record?
**A.** Its Kb is 10 nM.

**Q.** For `N#Cc1cc(OCCOCc2ccc(F)cc2)ccc1OCC(O)CNCCNC(=O)Nc1ccc2[nH]ccc2c1` (stereo not drawn) [Example 19], which ED50 [4, 8] is on record?
**A.** The ED50 was 0.1 mg/kg.

**Q.** What about the Kb [5, 9] of the same compound?
**A.** Its Kb is 100 nM.

**Q.** What about the “Maximum Change in Resting Heart Rate” value [1] of the same compound?
**A.** The value was “+51”.

**Q.** Which Kb [5, 9] does the source give for `CCCOCCOc1ccc(OCC(O)CN[C@H](C)CNC(=O)c2ccco2)c(F)c1` (stereo partly drawn) [Example 33] here?
**A.** Its Kb is 8 nM.

**Q.** Which Kb [5, 9] does the source give for `CCCOCCOc1ccc(OCC(O)CNCCNC(=O)Cc2ccc3[nH]ccc3c2)c(C#N)c1` (stereo not drawn) [Example 9] here?
**A.** The Kb was 25 nM.

**Q.** Which Kb [5, 9] does the source give for `CCCOCCOc1ccc(OCC(O)CNCCNC(=O)c2ccc3[nH]ccc3c2)c(C#N)c1` (stereo not drawn) [Example 20] here?
**A.** The Kb was 50 nM.

**Q.** Which results are given for `CC(C)NCC(O)COc1ccc(CC(N)=O)cc1` (stereo not drawn) [Atenolol, reference compound]?
**A.** ED50 ([4]; rat): 0.03 mg/kg; Kb [5]: 200 nM; Maximum Change in Resting Heart Rate in the Pithed Rat [1]: 0; blocking actions of the isoproterenol response in the trachea [6]: significant blocking actions of the isoproterenol response in the trachea

**Q.** For `CCCOCCOc1ccc(OCC(O)CNCCNC(=O)c2ccoc2)cc1` (stereo not drawn) [Example 28], which ED50 [4, 8] is on record?
**A.** The ED50 was 0.003 mg/kg.

**Q.** For `CCCOCCOc1ccc(OCC(O)CNCCNC(=O)Nc2ccc3[nH]ccc3c2)c(C#N)c1` (stereo not drawn) [Example 1, N-[2-[3-[2-cyano-4-(2-propoxyethoxy)phenoxy]-2-hydroxypropylamino]-ethyl]-N'-(1H-indol-5-yl)-urea], which ED50 [4, 8] is on record?
**A.** The ED50 was 0.002 mg/kg.

**Q.** What about the Kb [5, 9] of the same compound?
**A.** Its Kb is 3 nM.

**Q.** And the “Maximum Change in Resting Heart Rate” value [1]?
**A.** Its value is “+101”.

**Q.** And the “selectivity (cardiac atrial vs tracheal)” value [7]?
**A.** Its value is 17000.

**Q.** For `CCCOCCOc1ccc(OCC(O)CNCCNC(=O)Cc2ccsc2)c(C#N)c1` (stereo not drawn) [Example 11], which Kb [5, 9] is on record?
**A.** Its Kb is 12 nM.

**Q.** And the “Maximum Change in Resting Heart Rate” value [1]?
**A.** The value was “+66”.

**Q.** For `CCCCOCCOc1ccc(OCC(O)CNCCNC(=O)Nc2ccc3[nH]ccc3c2)c(C#N)c1` (stereo not drawn) [Example 13], which “Maximum Change in Resting Heart Rate” value [1] is on record?
**A.** Its value is “+105”.
